“Also recorded” adds a separate entry of the source.
Tests used:
Assay type in all cases: cell-based
[1] = tested on: TNF-a downstream genes; assay: TNF-a-dependent gene expression in three cell lines (RT-qPCR, secondary assays, FIG. 12); settings: 10 μM compound, 5 ng/ml TNF-a, 24 hours, THP-1, 293T, HepG2 cells
Method: (§1) THP-1 (FIG. 12A), 293T (FIG. 12B), and HepG2 (FIG. 12C) cells were cultured and stimulated with 5 ng/ml TNF-a for 24 hours. During the treatment, 10 μM of each compound was added. RT-qPCR was used to analyze the expression levels of selected TNF-a downstream genes (IL1b, CCL4 and CXCL1 in THP-1 cells in FIG. 12A; IL18, VCAM, and CXCL10 in 293T cells in FIG. 12B; and IL18, CXCL1, and CXCL5 in HepG2 cells in FIG. 12C).

[2] = molecular target: T1, TNF-a receptor (TNF-R1 reporter cells) (Homo sapiens, UniProt P19438); assay: TNF-a-receptor GFP reporter cell screen; settings: for specificity for TNF-a-receptor reporter over other cytokine receptor reporters: in words; for IC50 / Emax: reducing TNF-a-receptor reporter activities; for IC50: GFP percentage by microscope, 48 hours; for Emax: maximal effect at high compound concentrations, read-out: Emax
T1 construct: expressed in transfected cells; development described in WO2022125865A2
Method: FIG. 5 is a dot plot showing the identification of small-molecule compounds that reduce IL-17A or TNF-a receptor activities. Small-molecule screens were performed with 114,665 compounds. Individual compounds were added to IL-17A-reporters or TNF-a-reporters following the addition of respective ligands such as IL-17A or TNF-a (25 ng/ml). The reporter cells were then incubated for additional 48 hours before subjecting them for microscopic analyses (GFP percentage was measured by microscope). Anti-IL17A and anti-TNFa antibodies were used as the positive controls.
The IL-17RA/IL-17RC reporter system was used to identify the IL-17a-specific immune modulatory agents, as described herein (see e.g., compounds (1)-(16)). Furthermore, the IL-17A systems and methods were applied to generate other cytokine/cytokine receptor reporter system (tTA fused onto one receptor subunit via a protease cleavage site, TEV fused to another receptor subunit, optimal linkers inserted between different proteins to ensure high signal-to-background ratio; e.g., for identifying TNF-α-specific immune modulatory agents). The screening platform provided herein was used to identify immune modulatory agents including, but not limited to, small molecules and proteins that modulate IL-17A or TNF-α cytokine signaling.
Two thousand reporter cells per well (384-well plates) were seeded in 30 ul cell culture medium with either IL-17A (25 ng/ml, unless otherwise indicated) or TNFa ligand (25 ng/ml, unless otherwise indicated); additional screens were performed with IL-17A at 7.5 ng/ml. Then 100 nl of the individual compound was added by a pin transfer and cultured for two days in a CO2 incubator. For the cell viability test, 10 ul HOECHST 33342 was added and incubated for 10 min, followed by the addition of 10 ul 4% PFA. After a 10 min incubation, the reporter cells were washed twice with phosphate-buffered saline (PBS) and kept in 30 ul PBS. The images were acquired and analyzed using an IMAGEXPRESS confocal microscope. For storage, plates were sealed with black light-absorbing films.

[3] = tested on: TNF-a downstream genes in THP-1 cells; assay: TNF-a-dependent gene expression in THP-1 cells (RT-qPCR, FIG. 12A); settings: 10 μM compound, 5 ng/ml TNF-a, 24 hours; IL1b, CCL4, CXCL1
Method: as §1

[4] = tested on: TNF-a downstream genes in 293T cells; assay: TNF-a-dependent gene expression in 293T cells (RT-qPCR, FIG. 12B); settings: 10 μM compound, 5 ng/ml TNF-a, 24 hours; IL18, VCAM, CXCL10
Method: as §1

[5] = tested on: TNF-a downstream genes in HepG2 cells; assay: TNF-a-dependent gene expression in HepG2 cells (RT-qPCR, FIG. 12C); settings: 10 μM compound, 5 ng/ml TNF-a, 24 hours; IL18, CXCL1, CXCL5
Method: as §1

| Structure (SMILES) | effect on TNF-a-dependent gene expression [1] | specificity for TNF-a-receptor reporter over other cytokine receptor reporters [2] | IC50 [2] | Emax [2] | effect on TNF-a-dependent gene expression in THP-1 cells [3] | effect on TNF-a-dependent gene expression in 293T cells [4] | effect on TNF-a-dependent gene expression in HepG2 cells [5] |
| --- | --- | --- | --- | --- | --- | --- | --- |
| CC(C)CCN1C2CCNc3ccccc3CN(C(=O)CCCn3cncn3)CC1CC2 (racemic) [Compound 43] | inhibitory effects against some of TNF-a downstream genes |  |  |  |  |  |  |
| CC(=O)N1CCCN(S(C)(=O)=O)CCN(Cc2cccc(F)c2O)Cc2ccccc21 [Compound 15] | inhibitory effects against some of TNF-a downstream genes |  |  |  |  |  |  |
| O=c1ccc(-c2ccccc2)nn1Cc1c(F)cccc1Cl [Compound 19] | inhibitory effects against some of TNF-a downstream genes | reduce TNF-a-, not IL-17A-, receptor reporter activities | 7.46 µM | 98% | robust inhibitory effects | enhanced effects | enhanced effects |
| O=C(CSc1c2c(nc3ccccc13)CCC2)Nc1ccc(F)cc1 [Compound 39] | inhibitory effects against some of TNF-a downstream genes; also recorded: robust inhibitory effects | reduce TNF-a-, not IL-17A-, receptor reporter activities | 8.91 µM | 78% |  |  |  |
